Measurements reported in patent publication US20250313572A1, “MACROCYCLIC MCL-1 INHIBITORS AND METHODS OF USE” (AbbVie Inc., priority 2017, published 2025).
Like-named read-outs stand apart in the source and are kept apart here.

Tests used:
[1] = test system: AMO-1 human multiple myeloma tumor cell line; test: AMO-1 cell viability assay (CellTiter-Glo, 24 hours); format: cell-based; conditions: Homo sapiens, AMO1, 24 h, read-out: AMO-1 Viability IC50 (μM, 10% FBS), 10% FBS, 24 hours of compound treatment
[2] = test system: NCI-H929 human multiple myeloma tumor cell line; test: NCI-H929 cell viability assay (CellTiter-Glo, 24 hours); format: cell-based; conditions: Homo sapiens, NCI-H929, 24 h, read-out: H929 Viability IC50 (μM, 10% FBS), 10% FBS, 24 hours of compound treatment
GST-MCL-1 = GST-MCL-1 (Homo sapiens, UniProt Q07820); test: TR-FRET MCL-1 binding assay (competition with probe F-Bak)
Chain of GST-MCL-1 (Q07820 whole entry): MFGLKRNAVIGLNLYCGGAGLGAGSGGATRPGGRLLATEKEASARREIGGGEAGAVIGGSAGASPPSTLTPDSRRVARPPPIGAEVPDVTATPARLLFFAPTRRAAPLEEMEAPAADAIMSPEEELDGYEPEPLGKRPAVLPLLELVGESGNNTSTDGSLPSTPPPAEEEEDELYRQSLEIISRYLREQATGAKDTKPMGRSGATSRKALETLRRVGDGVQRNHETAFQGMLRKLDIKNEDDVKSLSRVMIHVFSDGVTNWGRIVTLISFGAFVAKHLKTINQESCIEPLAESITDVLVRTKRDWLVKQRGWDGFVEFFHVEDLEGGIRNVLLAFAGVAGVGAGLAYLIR
Outline: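 Displacement of F-Bak from GST-MCL-1 is detected by time-resolved FRET with a Tb-labelled anti-GST antibody, with excitation 340/35 nm and emission 520/525 and 495/510 nm, after 2 hours at room temperature. Compounds were titrated in 11 three-fold steps starting at 25 μM final, in buffer alone or in 10% HS.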

[3] = MCL-1 Binding Ki (nM, 10% HS), in the presence of 10% HS (human serum)
[4] = without HS, read-out: MCL-1 Binding Ki

Row | Compound | IC50 [1] | IC50 [2] | Ki (GST-MCL-1; [3]) | Ki (GST-MCL-1; [4])
1 | COCCOCCOCCOCCOCCOCCOCC1(c2nccc(COc3ccc4cc3C[C@H](C(=O)O)Oc3ncnc5sc(-c6ccc(F)cc6)c(c35)-c3c(C)c(Cl)c(c(Cl)c3C)O[C@H](CN3CCN(C)CC3)CO4)n2)CCC1 [Example 60, (7R,16R)-19,23-dichloro-1-(4-fluorophenyl)-10-({2-[1-(2,5,8,11,14,17,20-heptaoxahenicosan-1-yl)cyclobutyl]pyrimidin-4-yl}methoxy)-20,22-dimethyl-16-[(4-methylpiperazin-1-yl)methyl]-7,8,15,16-tetrahydro-18,21-etheno-13,9-(metheno)-6,14,17-trioxa-2-thia-3,5-diazacyclononadeca[1,2,3-cd]indene-7-carboxylic Acid] | 0.000987 µM | 0.00115 µM | 0.125 nM | 0.042 nM
2 | Cc1c(Cl)c2c(Cl)c(C)c1-c1c(-c3ccc(F)cc3)sc3ncnc(c13)O[C@@H](C(=O)O)Cc1cc(ccc1OCc1ccnc(N3CCC4(CCCNC4=O)CC3)n1)OC[C@@H](CN1CCN(C)CC1)O2 [Example 61, (7R,16R)-19,23-dichloro-1-(4-fluorophenyl)-20,22-dimethyl-16-[(4-methylpiperazin-1-yl)methyl]-10-{[2-(1-oxo-2,9-diazaspiro[5.5]undecan-9-yl)pyrimidin-4-yl]methoxy}-7,8,15,16-tetrahydro-18,21-etheno-13,9-(metheno)-6,14,17-trioxa-2-thia-3,5-diazacyclononadeca[1,2,3-cd]indene-7-carboxylic Acid] | 0.00886 µM | 0.0115 µM | 4.2 nM | 0.364 nM
3 | Cc1c(Cl)c2c(Cl)c(C)c1-c1c(-c3ccc(F)cc3)sc3ncnc(c13)O[C@@H](C(=O)O)Cc1cc(ccc1OCc1ccnc(C(CO)CO)n1)OC[C@@H](CN1CCN(C)CC1)O2 [Example 62, (7R,16R)-19,23-dichloro-10-{[2-(1,3-dihydroxypropan-2-yl)pyrimidin-4-yl]methoxy}-1-(4-fluorophenyl)-20,22-dimethyl-16-[(4-methylpiperazin-1-yl)methyl]-7,8,15,16-tetrahydro-18,21-etheno-9,13-(metheno)-6,14,17-trioxa-2-thia-3,5-diazacyclononadeca[1,2,3-cd]indene-7-carboxylic Acid] | 0.0251 µM | 0.095 µM | 2.26 nM | 0.324 nM
4 | COCCOCCOCCOCCOCCOC1(c2nccc(COc3ccc4cc3C[C@H](C(=O)O)Oc3ncnc5sc(-c6ccc(F)cc6)c(c35)-c3c(C)c(Cl)c(c(Cl)c3C)O[C@H](CN3CCN(C)CC3)CO4)n2)CCC1 [Example 63, (7R,16R)-19,23-dichloro-1-(4-fluorophenyl)-20,22-dimethyl-16-[(4-methylpiperazin-1-yl)methyl]-10-[(2-{1-[(2,5,8,11,14-pentaoxahexadecan-16-yl)oxy]cyclobutyl}pyrimidin-4-yl)methoxy]-7,8,15,16-tetrahydro-18,21-etheno-9,13-(metheno)-6,14,17-trioxa-2-thia-3,5-diazacyclononadeca[1,2,3-cd]indene-7-carboxylic Acid] | 0.00205 µM | 0.0032 µM | 0.148 nM | 0.039 nM
5 | COCCOCCOCCOCCOC1(c2nccc(COc3ccc4cc3C[C@H](C(=O)O)Oc3ncnc5sc(-c6ccc(F)cc6)c(c35)-c3c(C)c(Cl)c(c(Cl)c3C)O[C@H](CN3CCN(C)CC3)CO4)n2)CCC1 [Example 64, (7R,16R)-19,23-dichloro-1-(4-fluorophenyl)-20,22-dimethyl-16-[(4-methylpiperazin-1-yl)methyl]-10-[(2-{1-[(2,5,8,11-tetraoxatridecan-13-yl)oxy]cyclobutyl}pyrimidin-4-yl)methoxy]-7,8,15,16-tetrahydro-18,21-etheno-9,13-(metheno)-6,14,17-trioxa-2-thia-3,5-diazacyclononadeca[1,2,3-cd]indene-7-carboxylic Acid] | 0.00163 µM | 0.00243 µM | 0.167 nM | 0.038 nM
6 | Cc1c(Cl)c2c(Cl)c(C)c1-c1c(-c3ccc(F)cc3)sc3ncnc(c13)O[C@@H](C(=O)O)Cc1cc(ccc1OCc1ccnc(N3CC(C(CO)CO)C3)n1)OC[C@@H](CN1CCN(C)CC1)O2 [Example 65, (7R,16R)-19,23-dichloro-10-({2-[3-(1,3-dihydroxypropan-2-yl)azetidin-1-yl]pyrimidin-4-yl}methoxy)-1-(4-fluorophenyl)-20,22-dimethyl-16-[(4-methylpiperazin-1-yl)methyl]-7,8,15,16-tetrahydro-18,21-etheno-9,13-(metheno)-6,14,17-trioxa-2-thia-3,5-diazacyclononadeca[1,2,3-cd]indene-7-carboxylic Acid] | 0.0209 µM | 0.0596 µM | 0.65 nM | 0.195 nM
7 | COCCOCCOCCOCCOCCO[C@H]1CC[C@H](c2nccc(COc3ccc4cc3C[C@H](C(=O)O)Oc3ncnc5sc(-c6ccc(F)cc6)c(c35)-c3c(C)c(Cl)c(c(Cl)c3C)O[C@H](CN3CCN(C)CC3)CO4)n2)CC1 [Example 66, (7R,16R)-19,23-dichloro-1-(4-fluorophenyl)-20,22-dimethyl-16-[(4-methylpiperazin-1-yl)methyl]-10-[(2-{(1r,4r)-4-[(2,5,8,11,14-pentaoxahexadecan-16-yl)oxy]cyclohexyl}pyrimidin-4-yl)methoxy]-7,8,15,16-tetrahydro-18,21-etheno-13,9-(metheno)-6,14,17-trioxa-2-thia-3,5-diazacyclononadeca[1,2,3-cd]indene-7-carboxylic Acid] | 0.000876 µM | 0.00121 µM | 0.119 nM | 0.015 nM
8 | COCCOCCOCCOCCOCCOCCO[C@H]1CC[C@H](c2nccc(COc3ccc4cc3C[C@H](C(=O)O)Oc3ncnc5sc(-c6ccc(F)cc6)c(c35)-c3c(C)c(Cl)c(c(Cl)c3C)O[C@H](CN3CCN(C)CC3)CO4)n2)CC1 [Example 67, (7R,16R)-19,23-dichloro-1-(4-fluorophenyl)-10-[(2-{(1r,4r)-4-[(2,5,8,11,14,17-hexaoxanonadecan-19-yl)oxy]cyclohexyl}pyrimidin-4-yl)methoxy]-20,22-dimethyl-16-[(4-methylpiperazin-1-yl)methyl]-7,8,15,16-tetrahydro-18,21-etheno-13,9-(metheno)-6,14,17-trioxa-2-thia-3,5-diazacyclononadeca[1,2,3-cd]indene-7-carboxylic Acid] | 0.0011 µM | 0.00176 µM | 0.073 nM | 0.016 nM
9 | COCCOCCOCCOC[C@@H]1CN(c2nccc(COc3ccc4cc3C[C@H](C(=O)O)Oc3ncnc5sc(-c6ccc(F)cc6)c(c35)-c3c(C)c(Cl)c(c(Cl)c3C)O[C@H](CN3CCN(C)CC3)CO4)n2)CCO1 [Example 68, (7R,16R)-19,23-dichloro-1-(4-fluorophenyl)-20,22-dimethyl-16-[(4-methylpiperazin-1-yl)methyl]-10-({2-[(2S)-2-(2,5,8,11-tetraoxadodecan-1-yl)morpholin-4-yl]pyrimidin-4-yl}methoxy)-7,8,15,16-tetrahydro-18,21-etheno-13,9-(metheno)-6,14,17-trioxa-2-thia-3,5-diazacyclononadeca[1,2,3-cd]indene-7-carboxylic Acid] | 0.000426 µM | 0.000938 µM | 0.209 nM | 0.031 nM
10 | COCCOCCOCCOCCO[C@H]1CC[C@H](c2nccc(COc3ccc4cc3C[C@H](C(=O)O)Oc3ncnc5sc(-c6ccc(F)cc6)c(c35)-c3c(C)c(Cl)c(c(Cl)c3C)O[C@H](CN3CCN(C)CC3)CO4)n2)CC1 [Example 69, (7R,16R)-19,23-dichloro-1-(4-fluorophenyl)-20,22-dimethyl-16-[(4-methylpiperazin-1-yl)methyl]-10-[(2-{(1r,4r)-4-[(2,5,8,11-tetraoxatridecan-13-yl)oxy]cyclohexyl}pyrimidin-4-yl)methoxy]-7,8,15,16-tetrahydro-18,21-etheno-13,9-(metheno)-6,14,17-trioxa-2-thia-3,5-diazacyclononadeca[1,2,3-cd]indene-7-carboxylic Acid] | 0.000302 µM | 0.000615 µM | 0.053 nM | 0.012 nM
11 | COCCOCCOCCO[C@H]1CC[C@@H](c2nccc(COc3ccc4cc3C[C@H](C(=O)O)Oc3ncnc5sc(-c6ccc(F)cc6)c(c35)-c3c(C)c(Cl)c(c(Cl)c3C)O[C@H](CN3CCN(C)CC3)CO4)n2)CC1 [Example 70, (7R,16R)-19,23-dichloro-1-(4-fluorophenyl)-10-({2-[(1s,4s)-4-{2-[2-(2-methoxyethoxy)ethoxy]ethoxy}cyclohexyl]pyrimidin-4-yl}methoxy)-20,22-dimethyl-16-[(4-methylpiperazin-1-yl)methyl]-7,8,15,16-tetrahydro-18,21-etheno-13,9-(metheno)-6,14,17-trioxa-2-thia-3,5-diazacyclononadeca[1,2,3-cd]indene-7-carboxylic Acid] | 0.000263 µM | 0.000489 µM | 0.083 nM | 0.012 nM
12 | Cc1c(Cl)c2c(Cl)c(C)c1-c1c(-c3ccc(F)cc3)sc3ncnc(c13)O[C@@H](C(=O)O)Cc1cc(ccc1OCc1ccnc(-c3ccc(OCCN4CCP(C)(=O)CC4)cc3)n1)OC[C@@H](CN1CCN(C)CC1)O2 [Example 71, (7R,16R)-19,23-dichloro-1-(4-fluorophenyl)-20,22-dimethyl-10-[(2-{4-[2-(4-methyl-4-oxo-1, 4λ^5-azaphosphinan-1-yl)ethoxy]phenyl}pyrimidin-4-yl)methoxy]-16-[(4-methylpiperazin-1-yl)methyl]-7,8,15,16-tetrahydro-18,21-etheno-13,9-(metheno)-6,14,17-trioxa-2-thia-3,5-diazacyclononadeca[1,2,3-cd]indene-7-carboxylic Acid] | 0.00468 µM | 0.00851 µM | 0.106 nM | 0.039 nM
